# In patent US10124065B2, “Lipids and lipid compositions for the delivery of active agents” (Novartis AG, priority 2013, dated 2018):
# Where two headings read alike, the source gives them in different places.
# Assays:
# [1] = tested on: plasma Factor VII enzyme activity; assay: Mouse Factor VII dosing / Factor VII Activity Assay; format: in vivo; conditions: percent knock down of plasma Factor VII activity, CD-1 mice, 48 h; for KD FVII 0.3 mg/kg: single IV dose 0.3 mg/kg; for KD FVII 0.03 mg/kg: single IV dose 0.03 mg/kg
# Experimental: Female CD-1 mice were received from Harlan Labs and maintained on standard lab chow and water ad libitum. The animals weighed approximately 25 grams at time of dosing. Formulated Factor VII siRNA was administered as a single dose intravenously via the lateral tail vein. Approximately 48 hours after injection, the mice were euthanized by CO2 inhalation followed by exsanguination through the vena cava. […] Plasma collected from injected mice was assayed for Factor VII enzyme activity using the Biophen FVII kit from Hyphen Biomedical (catalog number 221304). An assay standard curve was prepared using pooled plasma aliquots from the vehicle control animals. All samples were diluted to fall within the linear range of the standard curve and Factor VII activity relative to control plasma was reported. Lipid nanoparticles comprising lipid compounds of formula (I) and the FVII siRNA duplex sequence listed above were tested in the Factor VII Activity Assay. The results of this assay are given in Table 4 below as a percent knock down of plasma Factor VII enzyme activity at a dose of 0.3 mg/kg and 0.03 mg/kg.
# [2] = pKa measurement of cationic lipid (TNS fluorescence); format: physicochemical; conditions: pKa of the cationic lipid of formula (I), Table 4
# Experimental: Unless indicated otherwise, all pKa's referred to herein were measured at standard temperature and pressure. Also, unless otherwise indicated, all references to pKa are references to pKa measured using the following technique. 2 mM solution of lipid in ethanol was prepared by weighing the lipid and then dissolving it in ethanol. 0.3 mM solution of fluorescent probe TNS in ethanol:methanol 9:1 was prepared by first making 3 mM solution of TNS in methanol and then diluting to 0.3 mM with ethanol. An aqueous buffer containing 200 mM sodium phosphate dibasic and 100 mM citric acid was prepared. […] Using the Hamilton Microlab Star high throughput liquid handler and Hamilton run control software Software, 7.5 uL of probe/lipid mix were added to 242.5 uL of buffer in a 1 mL 96 well plate (model NUNC 260252, […] Nunc International). This was done with all twelve buffers. After mixing in 1 mL 96 well plate, 100 uL of each probe/lipid/buffer mixture was transferred to a 250 uL black with clear bottom 96 well plate (model COSTAR 3904, Corning). The fluorescence measurements are carried out on the SpectraMax M5 spectrophotometer using software SoftMax pro 5.2 and following parameters: After the measurement, the background fluorescence value of an empty well on the 96 well plate was subtracted from each probe/lipid/buffer mixture. The fluorescence intensity values were then normalized to the value at lowest pH. The normalized fluorescence intensity vs. pH chart was then plotted in the Microsoft Excel software. The twelve points were connected with a smooth line. The point on the line at which the normalized fluorescence intensity was equal to 0.5 was found. […] The pKa determined using this method is precise to about 0.1 pKa units.
# [3] = Particle size of lipid nanoparticle (dynamic light scattering, Malvern Zetasizer); format: physicochemical
# Excerpt: The lipid nanoparticles have a size of about 1 to about 2,500 nm, about 1 to about 1,500 nm, about 1 to about 1,000 nm, in a sub-embodiment about 50 to about 600 nm, in a sub-embodiment about 50 to about 400 nm, in a sub-embodiment about 50 to about 250 nm, and in a sub-embodiment about 50 to about 150 nm. Unless indicated otherwise, all sizes referred to herein are the average sizes (diameters) of the fully formed nanoparticle, as measured by dynamic light scattering on a Malvern Zetasizer. The nanoparticle sample is diluted in phosphate buffered saline (PBS) so that the count rate is approximately 200-400 kcts. The data is presented as a weighted average of the intensity measure. Unless indicated otherwise, all particle size measurements referred to in Tables 4 and 5 are the Z-average particle size of the fully formed nanoparticle, as measured by dynamic light scattering on a Malvern Zetasizer. The nanoparticle sample was diluted in phosphate buffered saline (PBS) so that the count rate is approximately 200-400 kcts.
# [4] = Polydispersity index (PDI) of lipid nanoparticle (dynamic light scattering); format: physicochemical
# Experimental: Unless indicated otherwise, all PDIs referred to herein are the PDI of the fully formed nanoparticle, as measured by dynamic light scattering on a Malvern Zetasizer. The nanoparticle sample was diluted in phosphate buffered saline (PBS) so that the count rate was approximately 200-400 kcts. The data is presented in Tables 4 and 5 as a weighted average of the intensity measure.
# [5] = tested on: respiratory syncytial virus F protein; assay: Immunization studies, anti-RSV-F titers; format: in vivo; conditions: anti-RSV-F titer, BALB/c, course A = days 0 & 21, liposomes with 0.1 μg vA317 replicon (naked: 1 μg); for 2wp1 pool 1 / 2wp1 pool 2: 2 weeks after first dose; for 2wp2 pool 1 / 2wp2 pool 2: 2 weeks after second dose
# [6] = LNP Chol/DSPC/PEG-DMG 45/44/9/2
# [7] = FVII siRNA LNP, Chol/DSPC/PEG-DMG, molar ratio 45/44/9/2, Z-average
# [8] = FVII siRNA LNP, Chol/DSPC/S010, molar ratio 45/44/9/2, Z-average
# [9] = FVII siRNA LNP, Chol/DSPC/PEG-DMG, molar ratio 45/44/9/2
# [10] = FVII siRNA LNP, Chol/DSPC/S010, molar ratio 45/44/9/2
# [11] = PLK1-424 siRNA LNP, Chol/DSPC/S011 45/44/9/2
compound,measurement,setting,value
"CCCCCCCCCCCC(=O)OCCCCCCCCOc1cc(CN(C)C)cc(OCCCCCCCCOC(=O)CCCCCCCCCCC)c1 [Example 53, ((5-((dimethylamino)methyl)-1,3-phenylene)bis(oxy))bis(octane-8,1-diyl)didodecanoate]",KD FVII 0.3 mg/kg,[1]; [6],96.6%
same,pKa,[2]; listed as Ex. 53,5.84
"CCCCC/C=C\C/C=C\CCCCCCCC(=O)Oc1cc(COC(=O)CCN(C)C)cc(OC(=O)CCCCCCC/C=C\C/C=C\CCCCC)c1 [Example 26, (9Z,9′Z,12Z,12′Z)-5-(((3-(dimethylamino)propanoyl)oxy)methyl)-1,3-phenylene bis(octadeca-9,12-dienoate)]",KD FVII 0.3 mg/kg,[1]; [6],58.1%
same,Size (nm),[3]; [7],104.3 nm
same,Size (nm),[3]; [8],121.6 nm
same,PDI,[4]; [9],0.04
same,PDI,[4]; [10],0.046
same,pKa,"[2]; probe TNS, read-out: pKa",6.45
same,2wp1 pool 1,[5],4
same,2wp1 pool 2,[5],4
same,2wp2 pool 1,[5],10
same,2wp2 pool 2,[5],10
same,4wp2 pool 1,[5]; 4 weeks after second dose,10
same,4wp2 pool 2,[5]; 4 weeks after second dose,10
"CCCCCCCC(CCCCCCC)CCCC(=O)OCCCCOc1cc(CN(C)C)cc(OCCCCOC(=O)CCCC(CCCCCCC)CCCCCCC)c1 [Ex. 115, ((5-((dimethylamino)methyl)-1,3-phenylene)bis(oxy))bis(butane-4,1-diyl)bis(5-heptyldodecanoate)]",KD FVII 0.03 mg/kg,[1]; [6],78%
same,pKa,"[2]; probe TNS, read-out: pKa",5.87
"CCCCC/C=C\C/C=C\CCCCCCCC(=O)OCCOCCOc1cc(CN(CC)CC)cc(OCCOCCOC(=O)CCCCCCC/C=C\C/C=C\CCCCC)c1 [Example 58, (9Z,9′Z,12Z,12′Z)-((((5-((diethylamino)methyl)-1,3-phenylene)bis(oxy))bis(ethane-2,1-diyl))bis(oxy))bis(ethane-2,1-diyl)bis(octadeca-9,12-dienoate)]",KD FVII 0.03 mg/kg,[1]; LNP Chol/DSPC/S010 45/44/9/2,15.25%
same,KD FVII 0.3 mg/kg,[1]; [6],78.1%
same,pKa,[2]; listed as Ex. 58,6.02
"CCCCCCC(CCCCCC)CCCCCC(=O)OCc1cc(COC(=O)CCCCCC(CCCCCC)CCCCCC)cc(CN(C)C)c1 [Ex. 118, (5-((dimethylamino)methyl)-1,3-phenylene)bis(methylene)bis(7-hexyltridecanoate)]",KD FVII 0.03 mg/kg,[1]; [6],46.3%
same,pKa,"[2]; probe TNS, read-out: pKa",5.67
"CCCCC/C=C\C/C=C\CCCCCCCCOc1cc(CN(C)C)cc(OCCCCCCCC/C=C\C/C=C\CCCCC)c1 [Example 2, 1-(3,5-bis((9Z,12Z)-octadeca-9,12-dien-1-yloxy)phenyl)-N,N-dimethylmethanamine]",KD FVII 0.03 mg/kg,[1]; LNP Chol/DSPC/S010 45/44/9/2,55%
same,KD FVII 0.3 mg/kg,[1]; [6],95.5%
same,Size (nm),[3]; [7],97.4 nm
same,Size (nm),[3]; [8],92.85 nm
same,Size (nm),[3]; [11],88.19 nm
same,PDI,[4]; [9],0.04
same,PDI,[4]; [10],0.067
same,PDI,[4]; [11],0.1
same,pKa,[2]; listed as Ex. 2,5.46
same,2wp1 pool 1,[5],217
same,2wp1 pool 2,[5],259
same,2wp2 pool 1,[5],12785
same,2wp2 pool 2,[5],8232
"CCCCCC(CCCCC)CCCCCCCC(=O)OCCCCOc1cc(CN(C)C)cc(OCCCCOC(=O)CCCCCCCC(CCCCC)CCCCC)c1 [Ex. 114, ((5-((dimethylamino)methyl)-1,3-phenylene)bis(oxy))bis(butane-4,1-diyl)bis(9-pentyltetradecanoate)]",KD FVII 0.03 mg/kg,[1]; [6],44%
same,pKa,"[2]; probe TNS, read-out: pKa",5.97
"CCCCCCCC(=O)OCCCCCCCCCC(=O)OCc1cc(COC(=O)CCCCCCCCCOC(=O)CCCCCCC)cc(CN(C)C)c1 [Example 86, (5-((dimethylamino)methyl)-1,3-phenylene)bis(methylene)bis(10-(octanoyloxy)decanoate)]",KD FVII 0.03 mg/kg,[1]; LNP Chol/DSPC/S010 45/44/9/2,0%
same,KD FVII 0.3 mg/kg,[1]; [6],55.3%
same,pKa,[2]; listed as Ex. 86,5.81
"CCCCCC(CCCCC)CCCCCCCC(=O)OCc1cc(COC(=O)CCCCCCCC(CCCCC)CCCCC)cc(CN(C)C)c1 [Ex. 119, (5-((dimethylamino)methyl)-1,3-phenylene)bis(methylene)bis(9-pentyltetradecanoate)]",KD FVII 0.03 mg/kg,[1]; [6],7.8%
same,pKa,"[2]; probe TNS, read-out: pKa",5.84
"CCCCCCCCC(CCCCCCCC)CC(=O)OCCCCOc1cc(CN(C)C)cc(OCCCCOC(=O)CC(CCCCCCCC)CCCCCCCC)c1 [Ex. 116, ((5-((dimethylamino)methyl)-1,3-phenylene)bis(oxy))bis(butane-4,1-diyl)bis(3-octylundecanoate)]",KD FVII 0.03 mg/kg,[1]; [6],29%
same,pKa,"[2]; probe TNS, read-out: pKa",5.67
"CCCCC/C=C\C/C=C\CCCCCCCC(=O)OCc1cc(COC(=O)CCCCCCC/C=C\C/C=C\CCCCC)cc(CN(C)C)c1 [Example 33, (9Z,9′Z,12Z,12′Z)-(5-((dimethylamino)methyl)-1,3-phenylene)bis(methylene)bis(octadeca-9,12-dienoate)]",KD FVII 0.3 mg/kg,[1]; [6],90.4%
same,pKa,[2]; listed as Ex. 33,5.75
"CCCCCCCCC(CCCCCCCC)CC(=O)OCCCOc1cc(CN(C)C)cc(OCCCOC(=O)CC(CCCCCCCC)CCCCCCCC)c1 [Example 56, ((5-((dimethylamino)methyl)-1,3-phenylene)bis(oxy))bis(propane-3,1-diyl)bis(3-octylundecanoate)]",KD FVII 0.3 mg/kg,[1]; [6],71.0%
same,pKa,[2]; listed as Ex. 56,5.71
"CCCCCCCCOC(CCCOc1cc(CN(C)C)cc(OCCCC(OCCCCCCCC)OCCCCCCCC)c1)OCCCCCCCC [Ex. 126, 1-(3,5-bis(4,4-bis(octyloxy)butoxy)phenyl)-N,N-dimethylmethanamine]",KD FVII 0.03 mg/kg,[1]; [6],31.7%
same,Size (nm),[3]; [7],95.2 nm
same,PDI,[4]; [9],0.075
same,pKa,"[2]; probe TNS, read-out: pKa",5.54
